Tests used:
Cholinesterase = Cholinesterase (Equus caballus, UniProt P81908); assay: Inhibition of equine serum BuChE using S-butyrylthiocholine iodide as substrate pre-incubated for 30 mins followed by substrate addition and measured after 5 mins by DTNB reagent based Ellman's method
Acetylcholinesterase = Acetylcholinesterase (Electrophorus electricus, UniProt O42275); assay: Inhibition of electric eel AChE using acetylthiocholine iodide as substrate pre-incubated for 30 mins followed by substrate addition and measured after 5 mins by DTNB reagent based Ellman's method
Acetylcholinesterase, sequence (O42275 whole entry): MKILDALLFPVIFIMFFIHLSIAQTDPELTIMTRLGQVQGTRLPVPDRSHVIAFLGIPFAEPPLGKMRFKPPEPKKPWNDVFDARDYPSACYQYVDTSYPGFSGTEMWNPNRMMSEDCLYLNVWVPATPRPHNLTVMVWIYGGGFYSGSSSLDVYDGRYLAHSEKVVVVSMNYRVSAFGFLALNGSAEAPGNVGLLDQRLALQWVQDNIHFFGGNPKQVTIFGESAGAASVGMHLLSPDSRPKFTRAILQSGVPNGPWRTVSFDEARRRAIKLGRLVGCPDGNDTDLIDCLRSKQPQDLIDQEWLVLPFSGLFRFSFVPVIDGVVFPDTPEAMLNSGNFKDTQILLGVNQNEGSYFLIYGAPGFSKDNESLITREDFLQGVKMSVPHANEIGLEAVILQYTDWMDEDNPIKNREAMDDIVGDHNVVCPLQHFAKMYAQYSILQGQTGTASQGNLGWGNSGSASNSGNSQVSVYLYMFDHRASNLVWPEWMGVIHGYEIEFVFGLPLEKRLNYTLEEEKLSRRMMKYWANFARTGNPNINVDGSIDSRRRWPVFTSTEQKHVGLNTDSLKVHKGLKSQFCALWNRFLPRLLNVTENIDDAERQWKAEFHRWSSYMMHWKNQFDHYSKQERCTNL

Cholinesterase, sequence (P81908 whole entry): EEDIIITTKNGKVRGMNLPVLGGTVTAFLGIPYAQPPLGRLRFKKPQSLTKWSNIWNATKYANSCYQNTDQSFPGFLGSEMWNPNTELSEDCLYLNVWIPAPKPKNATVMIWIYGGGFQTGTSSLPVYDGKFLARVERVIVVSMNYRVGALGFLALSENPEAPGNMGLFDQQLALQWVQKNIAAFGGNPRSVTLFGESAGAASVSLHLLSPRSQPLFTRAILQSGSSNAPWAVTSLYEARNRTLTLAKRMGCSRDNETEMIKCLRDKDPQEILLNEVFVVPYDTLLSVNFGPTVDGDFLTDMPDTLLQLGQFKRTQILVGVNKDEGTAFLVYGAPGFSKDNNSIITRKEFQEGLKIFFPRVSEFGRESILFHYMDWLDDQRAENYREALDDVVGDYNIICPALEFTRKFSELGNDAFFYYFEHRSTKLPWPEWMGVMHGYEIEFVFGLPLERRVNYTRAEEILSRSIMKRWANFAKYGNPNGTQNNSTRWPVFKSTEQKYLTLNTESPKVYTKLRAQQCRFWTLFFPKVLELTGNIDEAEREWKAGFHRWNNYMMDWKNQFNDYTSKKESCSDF

SMILES	IC50 (Cholinesterase)	IC50 (Acetylcholinesterase)
O=C(CNS(=O)(=O)c1ccccc1Br)Nc1ccc2c(=O)n3c(nc2c1)CCC3	> 50 µM	4.17 µM
O=C(CNS(=O)(=O)c1ccccc1)Nc1ccc2c(=O)n3c(nc2c1)CCC3	48.5 µM	5.39 µM
O=C(CNS(=O)(=O)c1cccc(F)c1)Nc1ccc2c(=O)n3c(nc2c1)CCC3	> 50 µM	4.43 µM
O=C(CNS(=O)(=O)c1c(Cl)cccc1Cl)Nc1ccc2c(=O)n3c(nc2c1)CCC3	47.7 µM	4.06 µM
O=C(CNS(=O)(=O)c1cccc(C(F)(F)F)c1)Nc1ccc2c(=O)n3c(nc2c1)CCC3	> 50 µM	20.9 µM
CC(C)c1cc(C(C)C)c(S(=O)(=O)NCC(=O)Nc2ccc3c(=O)n4c(nc3c2)CCC4)c(C(C)C)c1	> 50 µM	> 50 µM
O=C(CNS(=O)(=O)c1cc(Cl)cc(Cl)c1)Nc1ccc2c(=O)n3c(nc2c1)CCC3	> 50 µM	> 50 µM
CC(C)c1ccc(S(=O)(=O)NCC(=O)Nc2ccc3c(=O)n4c(nc3c2)CCC4)cc1	> 50 µM	12.5 µM
Cc1ccc(S(=O)(=O)NCC(=O)Nc2ccc3c(=O)n4c(nc3c2)CCC4)cc1	> 50 µM	17.6 µM
O=C(CNS(=O)(=O)c1ccc(F)c(Cl)c1)Nc1ccc2c(=O)n3c(nc2c1)CCC3	> 50 µM	8.08 µM
O=C(CNS(=O)(=O)c1cc(Br)cc(C(F)(F)F)c1)Nc1ccc2c(=O)n3c(nc2c1)CCC3	> 50 µM	> 50 µM
COc1ccc(S(=O)(=O)NCC(=O)Nc2ccc3c(=O)n4c(nc3c2)CCC4)cc1	32.9 µM	5.58 µM
O=C(CNS(=O)(=O)c1ccccc1Cl)Nc1ccc2c(=O)n3c(nc2c1)CCC3	> 50 µM	2.57 µM
O=C(CNS(=O)(=O)c1ccc(Br)cc1)Nc1ccc2c(=O)n3c(nc2c1)CCC3	> 50 µM	> 50 µM
O=C(CNS(=O)(=O)c1ccccc1F)Nc1ccc2c(=O)n3c(nc2c1)CCC3	> 50 µM	5.25 µM
COc1ccc(S(=O)(=O)NCC(=O)Nc2ccc3c(=O)n4c(nc3c2)CCC4)c(OC)c1	> 50 µM	9.19 µM
O=C(CNS(=O)(=O)c1c(F)cccc1F)Nc1ccc2c(=O)n3c(nc2c1)CCC3	> 50 µM	5.12 µM
O=C(CNS(=O)(=O)c1cccc(Br)c1)Nc1ccc2c(=O)n3c(nc2c1)CCC3	> 50 µM	7.88 µM

— ChEMBL document CHEMBL5528012, “Discovery of novel deoxyvasicinone derivatives with benzenesulfonamide substituents as multifunctional agents against Alzheimer's disease” (Eur J Med Chem, 2024)
